The text below walks through data of patent publication US9458102B2 (priority 2011, dated 2016).

One data set has as its system rd1 mouse. Nature of the data set: rd1 mouse model of retinal degeneration, subretinal injection. The data set is classed as in vivo. Particulars: subretinal injection at P12, estimated final concentration 5 μM, harvested at P17. Here is the method: FIG. 9 is a set of four images of retinal sections from an untreated rd1 mouse euthanized at P17 (upper panels) and an rd1 mouse receiving a subretinal injection of 30 μM compound 8 (final concentration ^˜5 μM) at P12 and euthanized at P17 (lower panels). The photographs show standard histological analysis of retinal sections stained with cresol purple. The right panels are expansions of similar regions in each retina near the optic nerve. The white brackets mark the outer nuclear layer containing photoreceptor nuclei.
(§1) The rd1 mouse is a newer designation for the classic rd mouse, which harbors a nonsense mutation in the PDE6B gene. […] The rd phenotype has been studied for many years, and allows for more rapid assessment of protection strategies. However, the onset of rod photoreceptor death overlaps with the later stages of development and synaptogenesis, making it difficult to distinguish between the primary effects of rod degeneration and the consequences of abnormal neural development. The rd10 phenotype is more reminiscent of typical human RP.
FIG. 9 is a comparison of two rd1 eyes, one untreated (upper panel) and one receiving a subretinal injection of compound 8 to an estimated final concentration of 5 μM at P12. […] Indeed, the entire retina was healthier in appearance in the treated eye.

A further data set concerns rd10 mouse. Nature of the data set: rd10 mouse model of retinal degeneration, intravitreal injection. The data set is classed as in vivo. Particulars: intravitreal injection at P15, final concentration ~0.5 mM, euthanized at P25; PBS in the other eye. The protocol:
FIG. 8 is a set of two images of retinal sections from the left eye (left panel) and right eye (right panel) of an rd10 mouse, intravitreally injected with PBS and 5 mM compound 9 (final concentration ^˜0.5 mM), respectively, at P15 and euthanized at P25. Retinas were sectioned at 20 microns, and stained with DAPI. Images are confocal stacks taken very close to the optic nerve. The outer nuclear layers corresponding to photoreceptor cells are shown with white brackets.
as §1
(§2) In separate experiments on adult wild-type mice, the ERG a and b waves were blocked during a similar 10-day treatment, as expected for a concentration in excess of that required to completely block CNG channels. In the rd10 mouse some degeneration was probably underway before the treatment began.

Another data set relates to adult wild-type mice. Nature of the data set: ERG in adult wild-type mice during 10-day treatment. Particulars: similar 10-day treatment. Type of data set: in vivo, mouse.
Text: as §2

In the case of `CCCCNc1ccc(C(=S)NCCN(C)C)cc1` [Compound 8, 4-(Butylamino)-N-(2-(dimethylamino)ethyl)benzothioamide], the “rescuing effect on retina” value in the data set on rd1 mouse is “very noticeable rescuing effect”. The “outer nuclear layer thickness” value in the data set with rd1 mouse (untreated eye one cell thick) is reported as “about three cells thick”.
Take `CCCCCCCCNc1ccc(C(=S)NCCN(C)C)cc1` [Compound 9, 4-(Octylamino)-N-(2-(dimethylamino)ethyl)benzothioamide]: the “neuroprotection of the photoreceptor layer” value with rd10 mouse is reported as “striking neuroprotection of the photoreceptor layer”. The “ERG a and b waves” value in the data set on adult wild-type mice is recorded as “blocked”.
